Data on 6 compounds can be found in patent US10149887B2, “Peptides and peptidomimetics in combination with t cell activating and/or checkpoint inhibiting agents for cancer treatment” (CanBas Co., Ltd., priority 2015, dated 2018).

This data set deals with Jurkat cells. Description: Side effect of peptide used alone: Jurkat cell cycle disturbance (flow cytometry). It is filed as cell-based. The protocol:
Cell-cycle analysis The cell cycle status of the cells treated with bleomycin or adriamcin were analyzed by flow cytometry as described by Kawabe (1997) Nature 385:454-458. In brief, two million cells were re-suspended and incubated in 200 μl Krishan's solution (0.1% Sodium citrate, 50 μg/ml PI, 20 μg/ml RNase A and 0.5% NP-40) for 1 hr at 4° C. and analyzed by a flow cytometry, FACScan™ (Beckton Dickinson, Mountain View, Calif.) with the program CELLQuest™ (Beckton Dickinson).
The “Appearance of side effect when used alone” indicates the peptide/peptidomimetic dose that produced Jurkat cell cycle disturbance, i.e., the appearance of significant amounts of SubG1 cells (dead cells) or cells in which the DNA content of each varies more than usual. […] The “G2 abrogating dose” indicates the peptide/peptidomimetic dose with 40 μg/ml bleomycine that produced detectable G2 checkpoint abrogation activity following treatment for 24 hours. The “Appearance of side effect when used with colchicine” indicates the peptide/peptidomimetic dose with 5 μg/ml colchicine that produced Jurkat cell cycle disturbance following treatment for 24 hours.
(In general: In flow cytometry, cells or beads pass a laser one at a time.)

Molecules are shown by their SMILES. Square brackets hold non-standard residues; d marks the D form. Peptide text beside a SMILES is read from it. Phe(F5) = N[C@@H](Cc1c(F)c(F)c(F)c(F)c1F)C(=O)O; dPhe(F5) = N[C@H](Cc1c(F)c(F)c(F)c(F)c1F)C(=O)O; Cha = N[C@@H](CC1CCCCC1)C(=O)O; dCha = N[C@H](CC1CCCCC1)C(=O)O; Aun = NCCCCCCCCCCC(=O)O

On to `N=C(N)NCCC[C@H](NC(=O)[C@H](CCCNC(=N)N)NC(=O)[C@@H](N)CCCNC(=N)N)C(=O)N[C@@H](CC1CCCCC1)C(=O)N[C@@H](Cc1c(F)c(F)c(F)c(F)c1F)C(=O)N[C@@H](CCCNC(=N)N)C(=O)N[C@@H](CO)C(=O)N1CCC[C@H]1C(=O)N[C@@H](CO)C(=O)N[C@@H](Cc1ccc(O)cc1)C(=O)N[C@@H](Cc1ccc(O)cc1)C(=O)O` [CBP430, (1-Arg)(1-Arg)(1-Arg)(1-Cha)(1-Phe-2,3,4,5,6-F)(1-Arg)(1-Ser)(1-Pro)(1-Ser)(1-Tyr)(1-Tyr)] (H-RRR[Cha][Phe(F5)]RSPSYY-OH; N-terminus and C-terminus assumed), for which the “Appearance of side effect when used alone” value (“Appearance of side effect” for short) is greater than 50 µM.

In the case of `N[C@H](Cc1c(F)c(F)c(F)c(F)c1F)C(=O)N[C@H](CC1CCCCC1)C(=O)O` [CBP470, (d-Phe-2,3,4,5,6-F)(d-Cha)] (H-[dPhe(F5)]-[dCha]-OH; N-terminus and C-terminus assumed), the “Appearance of side effect” value was greater than 50 µM. The same measure for `N=C(N)NCCC[C@H](NC(=O)[C@H](CCCNC(=N)N)NC(=O)[C@H](CCCNC(=N)N)NC(=O)[C@H](CCC(N)=O)NC(=O)[C@H](CCCNC(=N)N)NC(=O)[C@@H](N)CCCNC(=N)N)C(=O)N[C@@H](CC1CCCCC1)C(=O)N[C@@H](Cc1c(F)c(F)c(F)c(F)c1F)C(=O)N[C@@H](CCCNC(=N)N)C(=O)N[C@@H](CO)C(=O)N1CCC[C@H]1C(=O)N[C@@H](CO)C(=O)N[C@@H](Cc1ccc(O)cc1)C(=O)N[C@@H](Cc1ccc(O)cc1)C(=O)O` [CBP431, (1-Arg)(1-Arg)(1-Gln)(1-Arg)(1-Arg)(1-Arg)(1-Cha)(1-Phe-2,3,4,5,6-F)(1-Arg)(1-Ser)(1-Pro)(1-Ser)(1-Tyr)(1-Tyr)] (H-RRQRRR[Cha][Phe(F5)]RSPSYY-OH; N-terminus and C-terminus assumed): greater than 50 µM; for `N[C@@H](Cc1ccc(O)cc1)C(=O)NCCCCCCCCCCC(=O)N[C@H](Cc1c(F)c(F)c(F)c(F)c1F)C(=O)N[C@H](CC1CCCCC1)C(=O)O` [CBP462, (1-Tyr)(1-aminoundecanoic acid)(d-Phe-2,3,4,5,6-F)(d-Cha)] (H-Y[Aun][dPhe(F5)][dCha]-OH; N-terminus and C-terminus assumed): greater than 50 µM; for `NCCCCCCCCCCC(=O)N[C@H](Cc1c(F)c(F)c(F)c(F)c1F)C(=O)N[C@H](CC1CCCCC1)C(=O)O` [CBP464, (1-aminoundecanoic acid)(d-Phe-2,3,4,5,6-F)(d-Cha)] (H-[Aun]-[dPhe(F5)]-[dCha]-OH; N-terminus and C-terminus assumed): greater than 50 µM.

With `N=C(N)NCCC[C@@H](NC(=O)[C@@H](CCCNC(=N)N)NC(=O)[C@@H](CCC(N)=O)NC(=O)[C@@H](CCCNC(=N)N)NC(=O)[C@@H](CCCNC(=N)N)NC(=O)[C@@H](CCCNC(=N)N)NC(=O)[C@@H](CC1CCCCC1)NC(=O)[C@@H](Cc1c(F)c(F)c(F)c(F)c1F)NC(=O)[C@@H](CO)NC(=O)[C@@H](Cc1c[nH]c2ccccc12)NC(=O)[C@@H](CO)NC(=O)[C@@H](CO)NC(=O)[C@H](N)Cc1ccc(O)cc1)C(=O)O` [CBP481, (d-Tyr)(d-Ser)(d-Ser)(d-Trp)(d-Ser)(d-Phe-2,3,4,5,6-F)(d-Cha)(d-Arg)(d-Arg)(d-Arg)(d-Gln)(d-Arg)(d-Arg)] (H-[dY][dS][dS][dW][dS][dPhe(F5)][dCha][dR][dR][dR][dQ][dR][dR]-OH; N-terminus and C-terminus assumed), the “Appearance of side effect” value was greater than 50 µM.
